Where “and” joins values, the source holds several entries; their conditions need not be identical. Identical values can stand only once.
Experiments:
[1] = system: CHO cells grown with Ac4ManNAz (azide-labeled glycans); assay: Cell-surface labeling of azido glycans on CHO cells and imaging by fluorescence microscopy; format: cell-based, Chinese hamster
Description: BARAC-Fluor (compound 17) was evaluated as a reagent for direct fluorescence imaging of live Chinese hamster ovary (CHO) cells. CHO cells grown either in the presence or absence of 50 μM Ac4ManNAz were treated with […] BARAC-Fluor (compound 17) for 5 min at rt, washed and then imaged (FIG. 9(a)-(h)).
CHO cells were incubated for 3 days in medium containing 50 μM Ac4ManNAz in an eight-well LabTek II chambered cover glass (Nunc). The medium was poured off, and the cells were washed three times with 200 μl of FACS buffer. The cells then were treated with a solution of BARAC-Fluor, diluted from a 1 mM stock solution in DMSO, in FACS buffer for 5 minutes at 5 μM at room temperature. The cells were also treated with Hoechst 33342 dye to stain the nucleus (1:1,000 dilution in medium of a 1 mg/ml stock solution in DMSO) as soon as possible after the addition of BARAC-Fluor. The cells washed four times with 200 μl of FACS buffer, and imaged at room temperature.
For the no-wash experiment the cells were treated as before, but were incubated in a 250 nM solution of BARAC-Fluor in FACS-buffer. After 25 minutes at room temperature Hoechst 33342 dye (1:1,000 dilution in medium of a 1 mg/ml stock solution in DMSO) was added. After an additional 5 minutes, the cells were imaged without washing away excess reagent. […]

[2] = Reaction rate of BARAC with benzyl azide (1H NMR kinetics); format: physicochemical
Description: The reactivity of BARAC (compound 15) was studied using benzyl azide as a model substrate. The second-order rate constant in acetonitrile at room temperature (rt) was 0.96 M^−1s^−1 (see FIG. 1), over 12-fold higher than the rate constant for DIFO under identical conditions and over 450 times higher than for an unactivated cyclooctyne. The half-life for the reaction of equimolar amounts of BARAC with benzyl azide at 10 mM was about 45 s at rt.
The reaction of BARAC (compound 15) and benzyl azide was monitored by ^1H NMR for 30 min. at 25° C. BARAC and benzyl azide were separately dissolved in CD3CN and mixed together in a 1:1 ratio at concentrations at 10 mM. A 2:1 ratio was used to determine the exact ratio of reagents based on remaining starting material upon completion of the reaction. The percent conversion was calculated by the disappearance of BARAC and benzyl azide relative to the formation of product as determined by integration. No products other than the two regioisomers of addition were apparent by ^1H NMR. The triazole isomers were produced in a ˜1:1 ratio. The second-order rate constant was determined by plotting 1/[compound 15] versus time. The plot was fit to a linear regression and the slope corresponds to the second-order rate constant. Shown in FIG. 1 are data from four replicate experiments.

[3] = Reaction rate of BARAC with 2-azido-N-isopropylacetamide (1H NMR kinetics); format: physicochemical; conditions: CD3CN, 25° C., 1:1 at 9.2 mM, three replicates
Description: The reaction of BARAC (compound 15) and 2-azido-N-isopropylacetamide was monitored by ^1H NMR for 30 min. at 25° C. BARAC and the azidoacetamide were separately dissolved in CD3CN and mixed together in a 1:1 ratio at concentrations at close to 10 mM (9.2 mM). Hexamethyldisilane (approx 0.3 equiv) was used as an internal standard. The percent conversion was calculated by the ratio between the formation of products and hexamethyldisilane as determined by integration. No products other than the regioisomers of addition were apparent by ^1H NMR. The ratio of triazole isomers is complicated by rotamers. The second-order rate constant was determined by plotting 1/[compound 15] versus time. The plot was fit to a linear regression and the slope corresponds to the second-order rate constant. Shown are data from three replicate experiments.

[4] = Potential background reaction of BARAC with glutathione; format: physicochemical; conditions: 5 mM glutathione in CD3CN:D2O (1:2), 2 mM BARAC, rt
[5] = Stability to chromatography and storage; format: physicochemical; conditions: traditional chromatography; storage at room temperature
From the text: Oxidation of indole (compound 10) with excess m-CPBA opened the central rings to give the cyclic keto-amide (compound 11), which was unstable to silica-gel purification. These reaction conditions left the terminal alkene untouched. Treatment of the potassium enolate of ketone (compound 11) with trifluoromethanesulfonyl anhydride gave compound 12. Selective reaction of the terminal alkene with a nitrile oxide generated in situ from chlorooxime (compound 13) installed a linker for conjugation to a probe molecule as reported by Huisgen, R. and Gutsmiedl, et al. Huisgen, R. Angew. Chem. Int. Ed., (1963), 2, 565-598; and Gutsmiedl, K.; Wirges, C. T.; Ehmke, V.; Carell, T. Org. Lett., 2009, 11, 2405-2408. Reaction of compound 14 with CsF introduced the strained alkyne in under 30 min at rt. The synthesis of BARAC (compound 15) from compound 9 was accomplished in 6 steps in 18% overall yield (see FIG. 11).

[6] = system: Jurkat cells treated with Ac4ManNAz (cell-surface azido sialic acids, SiaNAz)
Description: Cultured Jurkat cells were treated with peracetylated N-azidoacetyl mannosamine (Ac4ManNAz) to introduce the corresponding azido sialic acids (SiaNAz) into their cell-surface glycoproteins and lipids.
Jurkat cells were incubated in untreated media or media containing 25 μM Ac4ManNAz. After 3 d, the cells were twice concentrated (500×g, 3 min, 4° C.) and resuspended in 10 mL FACS buffer (PBS containing 1% FCS, 2×10 mL) and cells (approx 350,000 per a well) were placed in a 96 well V-bottom plate. The cells were concentrated by centrifugation (2500×g, 3 min, 4° C.), resuspended in 200 μL cold FACS buffer, and again concentrated by centrifugation (2500×g, 3 min, 4° C.). […] After 1 h, the cells were thrice concentrated by centrifugation (2500×g, 3 min, 4° C.) and resuspended in 200 μL cold FACS buffer. Following and additional concentration by centrifugation (2500×g, 3 min, 4° C.), cells were resuspended in FACS buffer (100 μL) containing FITC-avidin (1:200 dilution of 1 mg/mL stock, Sigma-Aldrich) and incubated in the dark at 4° C. for 15 min. Following the incubation, cells were concentrated by centrifugation, resuspended in 200 μL cold FACS buffer, concentrated by centrifugation, and another FITC-avidin incubation was performed. After the second FITC-avidin labeling, the cells were thrice concentrated by centrifugation (2500×g, 3 min, 4° C.) and resuspended in 200 μL cold FACS buffer. The cells were then diluted to 400 μL for flow cytometry analysis. Flow cytometry was performed on a BD Biosciences FACSCalibur flow cytometer equipped with a 488-nm argon laser. All flow cytometry experiments were performed with three replicate samples.
Jurkat cells were incubated in the presence or absence of 25 μM Ac4ManNAz for 3 d. […] MFI=mean fluorescence intensity and has arbitrary units (Au).
Jurkat cells were incubated with (+Az) or without (−Az) 25 M Ac4ManNAz for 3 days. The cells were labeled with 1 μM cyclooctyne-biotin for various times and then treated with FITC-avidin. […] The degree of labeling was quantified by flow cytometry. The level of fluorescence was reported in mean fluorescence intensity (MFI, arbitrary unit). Error bars represent the standard deviation of three replicate experiments. […] MFI reported as difference between signal of cells +Az and signal of cells −Az.

[7] = system: Jurkat cells; conditions: 1 μM, 1 h at 25° C., 7-AAD (FIG. 5)
Description: Jurkat cells were incubated in the presence (+Az, black bar) or absence (−Az, gray bar) of Ac4ManNAz for 3 d. […] Prior to flow cytometry analysis, half the cells were treated with 7-amino-actinomycin D (7-AAD) following the procedure reported at http://www.bdbiosciences.com/external_files/pm/doc/tds/cell_bio/live/web_enabled/68981E—559925.pdf. The samples were diluted and analyzed by flow cytometry. The error bars represent standard deviations from three replicate samples.
In all plots, the x-axis indicates the degree of cell-surface glycan labeling as measured by FITC fluorescence (FL1). For the plots shown if FIG. 6(a)-(d), the y-axis represents the degree of 7-AAD (FL3, cell viability marker).

O=C(OCc1ccc(C2=NOC(CN3C(=O)c4ccccc4C#Cc4ccccc43)C2)cc1)N1CCN(C(=O)c2ccccc2-c2c3ccc(=O)cc-3oc3cc(O)ccc23)CC1 (stereo not drawn) [BARAC-Fluor]
labeling in no-wash experiment ([1]; 250 nM, 30 min at rt, imaged without washing (FIG. 9(i)-(p))): significant labeling above the background
cell surface fluorescence of azide-labeled cells ([1]; 5 μM, 5 min at rt, washed, 50 μM Ac4ManNAz (FIG. 9(a)-(h))): significant cell surface fluorescence

O=C1c2ccccc2C#Cc2ccccc2N1CC1CC(c2ccc(CO)cc2)=NO1 (stereo not drawn) [BARAC]
second-order rate constant ([2]; benzyl azide, acetonitrile (CD3CN), rt (25° C.), 1:1 at 10 mM): 0.96 M⁻¹ s⁻¹ and 0.96 ± 0.04 M⁻¹ s⁻¹
times higher rate constant than an unactivated cyclooctyne ([2]; versus unactivated cyclooctyne): over 450 times
second-order rate constant [3]: 0.64 ± 0.06 M⁻¹ s⁻¹
half-life at 2 mM [4]: 24 h
stability [5]: stable to traditional chromatography and storage at room temperature

BARAC-biotin
cell labeling at low concentration ([6]; 50 nM, 1 h, Jurkat (FIG. 3)): significant cell labeling
labeling compared with DIFO-biotin and DIBO-biotin ([6]; 1 μM cyclooctyne-biotin, after 1 h (FIG. 8(b))): more labeling than DIFO-biotin and DIBO-biotin
fold higher signal than either DIFO-biotin or DIBO-biotin ([6]; 1 μM, after 1 min (FIG. 8(c))): 10 fold
azide-specific cell labeling ([6]; Jurkat ±25 μM Ac4ManNAz 3 d, reagent 1 h, versus FITC-avidin alone (FIG. 3)): robust azide-specific labeling with no significant background labeling
cytotoxicity compared to cells treated with no cyclooctyne reagent [7]: not accompanied by any cytotoxicity
